Literature values as cited in patent US20140234375A1, “Compositions and Methods for Eliciting an Immune Response to Escape Mutants of Targeted Therapies” (priority 2005, published 2014).

Tests used:
[1] = molecular target: HCV NS3 serine protease (Hepatitis C virus genotype 1b, UniProt Q9WMX2); settings: in vitro, major resistance mutation
[2] = system: HIV-1 variants; settings: by 8 weeks of therapy
[3] = system: HIV gp41; settings: valine to alanine at amino acid 38 (V38A)

Question: Which “frequency of Ser substitution (A156S) at amino acid 156” value ([1]; share of samples) does the source give for `CCC[C@H](NC(=O)[C@@H]1[C@H]2CCC[C@H]2CN1C(=O)[C@@H](NC(=O)[C@@H](NC(=O)c1cnccn1)C1CCCCC1)C(C)(C)C)C(=O)C(=O)NC1CC1` [VX-950] here?
Answer: 79%

Question: For `Cc1ccnc2c1NC(=O)c1cccnc1N2C1CC1` [Nevirapine, nevirapine], which “decrease in susceptibility of patient isolates” value [2] is on record?
Answer: greater than 100 fold

Question: Which “frequency of Ala substitution (D168A) at amino acid 168” value [1] does the source give for `COc1ccc2c(O[C@@H]3C[C@H]4C(=O)N[C@]5(C(=O)O)C[C@H]5/C=C\CCCCC[C@H](NC(=O)OC5CCCC5)C(=O)N4C3)cc(-c3csc(NC(C)C)n3)nc2c1` [BILN 2061] here?
Answer: 24%

Question: What about the “frequency of Val substitution (D168V) at amino acid 168” value [1] of the same compound?
Answer: 64%

Question: For enfuvirtide, which resistance to enfuvirtide [3] is on record?
Answer: 45 fold
